Experimental data: PubChem BioAssay AID1963975 (Molecular Pharmacology Branch, DTP, NCI, 2024)

Test system: 624824-186-R-J2-PDC multicell spheroids, viability
Test: Anticancer human tumor 624824-186-R-J2-PDC patient-derived colon adenocarcinoma cell line growth inhibition [PI3K]
Settings: for IC50: curve of first compound; for viability, T/C: stronger effect = lower value
Method in brief: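 Tumor cells grown as multi-cell spheroids with HUVEC endothelial cells and MSC fibroblast-like stroma were treated with targeted agents combined with inavolisib, alpelisib, duvelisib or copanlisib. Doses fell in half-log steps from near clinical Cmax, else from 10 microM. Viability was measured.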

[1] = second compound 0.0316 µM, first compound 0.000316 µM
[2] = second compound 0.0316 µM, first compound 0.001 µM
[3] = second compound 0.0316 µM, first compound 0.00316 µM
[4] = second compound 0.0316 µM, first compound 0.01 µM
[5] = second compound 0.0316 µM, first compound 0.0316 µM
[6] = second compound 0.0316 µM, first compound 0.1 µM
[7] = second compound 0.1 µM, first compound 0.000316 µM
[8] = second compound 0.1 µM, first compound 0.001 µM
[9] = second compound 0.1 µM, first compound 0.00316 µM
[10] = second compound 0.1 µM, first compound 0.01 µM
[11] = second compound 0.1 µM, first compound 0.0316 µM
[12] = second compound 0.1 µM, first compound 0.1 µM
[13] = second compound 0.316 µM, first compound 0.000316 µM
[14] = second compound 0.316 µM, first compound 0.001 µM
[15] = second compound 0.316 µM, first compound 0.00316 µM
[16] = second compound 0.316 µM, first compound 0.01 µM
[17] = second compound 0.316 µM, first compound 0.0316 µM
[18] = second compound 0.316 µM, first compound 0.1 µM
[19] = second compound 1 µM, first compound 0.000316 µM
[20] = second compound 1 µM, first compound 0.001 µM
[21] = second compound 1 µM, first compound 0.00316 µM
[22] = second compound 1 µM, first compound 0.01 µM
[23] = second compound 1 µM, first compound 0.0316 µM
[24] = second compound 1 µM, first compound 0.1 µM
[25] = second compound 3.16 µM, first compound 0.000316 µM
[26] = second compound 3.16 µM, first compound 0.001 µM
[27] = second compound 3.16 µM, first compound 0.00316 µM
[28] = second compound 3.16 µM, first compound 0.01 µM
[29] = second compound 3.16 µM, first compound 0.0316 µM
[30] = second compound 3.16 µM, first compound 0.1 µM
[31] = second compound 10 µM, first compound 0.000316 µM
[32] = second compound 10 µM, first compound 0.001 µM
[33] = second compound 10 µM, first compound 0.00316 µM
[34] = second compound 10 µM, first compound 0.01 µM
[35] = second compound 10 µM, first compound 0.0316 µM
[36] = second compound 10 µM, first compound 0.1 µM
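Further: spheroids exposed to agents for 7 days before viability read.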
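Wherever viability, T/C is given: 100% = DMSO vehicle treated spheroids.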

Structure (SMILES): CC(=O)c1c(C)c2cnc(Nc3ccc(N4CCNCC4)cn3)nc2n(C2CCCC2)c1=O + CC(Nc1ncnc2nc[nH]c12)c1cc2cccc(Cl)c2c(=O)n1-c1ccccc1
- IC50 (second compound 0.0316 µM): > 0.1 µM
- IC50 (second compound 0.1 µM): > 0.1 µM
- IC50 (second compound 0.316 µM): > 0.1 µM
- IC50 (second compound 1 µM): > 0.1 µM
- IC50 (second compound 3.16 µM): > 0.1 µM
- IC50 (second compound 10 µM): > 0.1 µM
- viability, T/C [1]: 78.8%
- viability, T/C [2]: 118%
- viability, T/C [3]: 98.7%
- viability, T/C [4]: 98.5%
- viability, T/C [5]: 80.5%
- viability, T/C [6]: 86.1%
- viability, T/C [7]: 107%
- viability, T/C [8]: 85.2%
- viability, T/C [9]: 84.4%
- viability, T/C [10]: 79.9%
- viability, T/C [11]: 90%
- viability, T/C [12]: 93.5%
- viability, T/C [13]: 121%
- viability, T/C [14]: 134%
- viability, T/C [15]: 79.8%
- viability, T/C [16]: 77.5%
- viability, T/C [17]: 78.2%
- viability, T/C [18]: 93%
- viability, T/C [19]: 111%
- viability, T/C [20]: 96.6%
- viability, T/C [21]: 89.5%
- viability, T/C [22]: 108%
- viability, T/C [23]: 88.6%
- viability, T/C [24]: 92.6%
- viability, T/C [25]: 98.8%
- viability, T/C [26]: 83.6%
- viability, T/C [27]: 91.9%
- viability, T/C [28]: 111%
- viability, T/C [29]: 88.5%
- viability, T/C [30]: 84%
- viability, T/C [31]: 112%
- viability, T/C [32]: 110%
- viability, T/C [33]: 107%
- viability, T/C [34]: 96.3%
- viability, T/C [35]: 92.4%
- viability, T/C [36]: 94%

Structure (SMILES): CC(C)n1nc(-c2ccc3oc(N)nc3c2)c2c(N)ncnc21 + CC(Nc1ncnc2nc[nH]c12)c1cc2cccc(Cl)c2c(=O)n1-c1ccccc1
- IC50 (second compound 0.0316 µM): > 0.1 µM
- IC50 (second compound 0.1 µM): > 0.1 µM
- IC50 (second compound 0.316 µM): > 0.1 µM
- IC50 (second compound 1 µM): > 0.1 µM
- IC50 (second compound 3.16 µM): > 0.1 µM
- IC50 (second compound 10 µM): > 0.1 µM
- viability, T/C [1]: 108%
- viability, T/C [2]: 113%
- viability, T/C [3]: 83%
- viability, T/C [4]: 76.7%
- viability, T/C [5]: 75.7%
- viability, T/C [6]: 77.9%
- viability, T/C [7]: 94.3%
- viability, T/C [8]: 81.9%
- viability, T/C [9]: 105%
- viability, T/C [10]: 85.8%
- viability, T/C [11]: 81.5%
- viability, T/C [12]: 75.2%
- viability, T/C [13]: 87.5%
- viability, T/C [14]: 77.3%
- viability, T/C [15]: 73.6%
- viability, T/C [16]: 83.3%
- viability, T/C [17]: 86.8%
- viability, T/C [18]: 75.8%
- viability, T/C [19]: 93.2%
- viability, T/C [20]: 99%
- viability, T/C [21]: 91.6%
- viability, T/C [22]: 79.2%
- viability, T/C [23]: 84.8%
- viability, T/C [24]: 90.6%
- viability, T/C [25]: 101%
- viability, T/C [26]: 90.5%
- viability, T/C [27]: 82.3%
- viability, T/C [28]: 90.5%
- viability, T/C [29]: 87.7%
- viability, T/C [30]: 78.2%
- viability, T/C [31]: 109%
- viability, T/C [32]: 96.7%
- viability, T/C [33]: 82.7%
- viability, T/C [34]: 95.5%
- viability, T/C [35]: 81.2%
- viability, T/C [36]: 78.6%
